Tests used:
[1] = tested on: Macrotyloma uniflorum urease; experiment: in vitro urease inhibitory assay (modified Berthelot reaction, indophenol blue, absorbance at 630 nm); type: biochemical, Macrotyloma uniflorum (Horse gram); details: for Maximum Percentage of Inhibition: maximum over tested range 5.00-35.00 μg/mL; for IC50: urease extracted from Macrotyloma uniflorum, thiourea as standard inhibitor, 37 °C, pH 7.2
Procedure: All synthesized oxime compounds (2, 6, 7, 8, and 9) were evaluated for the in vitro urease inhibitory activity using a colorimetric method. This method involves the formation of indophenol blue in a basic medium where the modified Berthelot reaction is used. The urease enzyme required for the assay was extracted from Macrotyloma uniflorum (Horse gram) with the activity of 0.1013 U, and thiourea was used as the standard inhibitor [34]. The amount of ammonia produced within a given period of time was quantified using a standard calibration method.
Modified Berthelot method was used for the determination of the amount of produced ammonia, and thereby for the quantification of the urease inhibitory activities of the synthesized oxime derivatives (compounds 2, 6, 7, 8, and 9) by measuring their absorbance at 630 nm. All the test compounds and thiourea were prepared by dissolving 2 mg of each compound in 20 mL of 1.25% DMF - buffer solution (pH = 7.2, Na2HPO4 = 0.067 mol dm^−3, KH2PO4 = 0.033 mol dm^−3). DMF doesn’t show any inhibitory effect on urease activity. Initially, a 96 well plate filled with 10 μL of urease enzyme (0.01 U) and 10–70 μL of the test compound was placed in the plate reader and incubated at 37 °C for 15 min. (Concentration of each sample was changed by varying the volume of test compounds from 10 to 70 μL.) Then, to each well, 10 μL of the buffer, 10 μL of EDTA (0.025 mol dm^−3), and 10 μL of urea (0.64 mol dm^−3) were added. After that, 80–20 μL of distilled water was added accordingly to adjust the total volume to 130 μL and incubated in plate reader for another 20 min at 37 °C. Then 35 μL of each coloring agents ((coloring agent A—1% (w/v) phenol, 0.005% (w/v) sodium nitroprusside and coloring agent B—0.5% (w/v) NaOH, 0.05% (v/v) NaOCl)) were introduced to each well, and the plate was incubated in plate reader for another 50 min at 37 °C for the development of indophenol blue color. At the end of the 50 min, the absorbance of each sample was measured at the absorbance wavelength of 630 nm. A control test was conducted to quantify the total hydrolysis of urea in the presence of urease (C). Negative control was carried out to quantify the spontaneous hydrolysis of urea in the absence of the urease enzyme (N). For each sample (T1–7), a negative control test (N1–7) was performed in the absence of the urease enzyme. All experiments were performed thrice. The percentage inhibition of the urease enzyme was calculated using Equation (1). (1) percentage inhibition=[[AC−AN]−[AT1−AN1]/[AC−AN]]×100 where • AC = Absorbance of the control sample (C) • AN = Absorbance of the negative control sample (N) • AT1−7 = Absorbance of the test sample (T1 to T7) • AN1−7 = Absorbance of the negative control of the test sample (N1 to N7)

Row | SMILES | Percentage inhibition (± SEM) ([1]; at 5.00 μg/mL) [%] | Percentage inhibition (± SEM) ([1]; at 10.00 μg/mL) [%] | Percentage inhibition (± SEM) ([1]; at 15.00 μg/mL) [%] | Percentage inhibition (± SEM) ([1]; at 20.00 μg/mL) [%] | Percentage inhibition (± SEM) ([1]; at 25.00 μg/mL) [%] | Percentage inhibition (± SEM) ([1]; at 30.00 μg/mL) [%] | Maximum Percentage of Inhibition [1] [%] | IC50 [1] [µM] | melting point [°C]
1 | O/N=C\c1c[nH]c2ccccc12 [Compound 2, (Z)-N-hydroxy-1-(1H-indole-3-yl)methanimine] | 17.46 ± 0.71 | 24.56 ± 0.53 | 29.28 ± 0.52 | 39.40 ± 0.65 | 57.27 ± 0.63 | 64.87 ± 0.93 | 67.81 | 141 ± 7.5 | –
2 | Cn1cc(/C=N\O)c2ccccc21 [Compound 6, (Z)-N-hydroxy-1-(1-methyl-1H-indol-3-yl)methanimine] | 24.57 ± 1.22 | 28.15 ± 0.81 | 29.91 ± 0.90 | 40.38 ± 0.24 | 55.76 ± 0.60 | 73.07 ± 0.35 | 77.05 | 140 ± 4.5 | 112 to 115
3 | Cn1cc(/C=N/O)c2ccccc21 [Compound 7, (E)-N-hydroxy-1-(1-methyl-1H-indol-3-yl)methanimine] | 22.74 ± 0.93 | 31.87 ± 0.59 | 38.14 ± 1.25 | 44.38 ± 0.35 | 48.92 ± 0.67 | 53.01 ± 0.85 | 57.17 | 153 ± 1.6 | 126 to 129
4 | O/N=C\c1cn(Cc2ccccc2)c2ccccc12 [Compound 8, (Z)-1-(1-benzyl-1H-indol-3-yl)-N-hydroxymethanimine] | 36.36 ± 0.79 | 44.39 ± 0.70 | 58.52 ± 0.58 | 67.99 ± 1.01 | 76.49 ± 1.24 | 79.64 ± 0.88 | 83.78 | 51.6 ± 3.5 | 132 to 134
5 | O/N=C/c1cn(Cc2ccccc2)c2ccccc12 [Compound 9, (E)-1-(1-benzyl-1H-indol-3-yl)-N-hydroxymethanimine] | 33.06 ± 1.23 | – | 72.38 ± 0.77 | 77.61 ± 1.55 | 83.21 ± 0.82 | 84.89 ± 0.47 | 86.09 | 34.5 ± 0.8 | 140 to 143
6 | NC(N)=S [Thiourea, thiourea, reference compound] | 11.24 ± 0.28 | 22.61 ± 0.49 | 38.41 ± 0.63 | 61.54 ± 0.53 | 74.36 ± 0.50 | 81.49 ± 0.67 | 85.14 | 239 ± 4.8 | –

Reference: PMC8588131, “Synthesis, In Silico Studies, and Evaluation of Syn and Anti Isomers of N-Substituted Indole-3-carbaldehyde Oxime Derivatives as Urease Inhibitors against Helicobacter pylori” (Molecules, 2021)
